Assay results taken from patent publication US11697648B2, “Fused pyrimidine pyridinone compounds as JAK inhibitors” (THERAVANCE BIOPHARMA R&D IP, LLC, priority 2019, dated 2023).

Legend:
[1] = test system: IL-2 stimulated STAT5 phosphorylation in Tall-1 human T cell line (JAK3); assay: Cellular JAK3 potency assay: inhibition of IL-2 stimulated pSTAT5 in Tall-1 T cells; type: cell-based; conditions: IL-2 stimulated pSTAT5, Tall-1 T cells
Method in brief: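 Tall-1 cells, 45,000 per well, preincubated 1 hour with compound at 37 °C, then stimulated 30 minutes with IL-2 at 300 ng/ml final. pSTAT5 (Tyr694/699) in lysates quantified by AlphaLISA SureFire Ultra. pIC50 derived from inhibition curves, given as mean with SD.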

JAK3 = JAK3 (Homo sapiens (Human), UniProt P52333); assay: Biochemical JAK3 kinase assay (LanthaScreen); conditions: for JAK3 (pKi)-JAK1 (pKi): selectivity JAK3 over JAK1, difference of pKi
Sequence of JAK3 (P52333 whole entry): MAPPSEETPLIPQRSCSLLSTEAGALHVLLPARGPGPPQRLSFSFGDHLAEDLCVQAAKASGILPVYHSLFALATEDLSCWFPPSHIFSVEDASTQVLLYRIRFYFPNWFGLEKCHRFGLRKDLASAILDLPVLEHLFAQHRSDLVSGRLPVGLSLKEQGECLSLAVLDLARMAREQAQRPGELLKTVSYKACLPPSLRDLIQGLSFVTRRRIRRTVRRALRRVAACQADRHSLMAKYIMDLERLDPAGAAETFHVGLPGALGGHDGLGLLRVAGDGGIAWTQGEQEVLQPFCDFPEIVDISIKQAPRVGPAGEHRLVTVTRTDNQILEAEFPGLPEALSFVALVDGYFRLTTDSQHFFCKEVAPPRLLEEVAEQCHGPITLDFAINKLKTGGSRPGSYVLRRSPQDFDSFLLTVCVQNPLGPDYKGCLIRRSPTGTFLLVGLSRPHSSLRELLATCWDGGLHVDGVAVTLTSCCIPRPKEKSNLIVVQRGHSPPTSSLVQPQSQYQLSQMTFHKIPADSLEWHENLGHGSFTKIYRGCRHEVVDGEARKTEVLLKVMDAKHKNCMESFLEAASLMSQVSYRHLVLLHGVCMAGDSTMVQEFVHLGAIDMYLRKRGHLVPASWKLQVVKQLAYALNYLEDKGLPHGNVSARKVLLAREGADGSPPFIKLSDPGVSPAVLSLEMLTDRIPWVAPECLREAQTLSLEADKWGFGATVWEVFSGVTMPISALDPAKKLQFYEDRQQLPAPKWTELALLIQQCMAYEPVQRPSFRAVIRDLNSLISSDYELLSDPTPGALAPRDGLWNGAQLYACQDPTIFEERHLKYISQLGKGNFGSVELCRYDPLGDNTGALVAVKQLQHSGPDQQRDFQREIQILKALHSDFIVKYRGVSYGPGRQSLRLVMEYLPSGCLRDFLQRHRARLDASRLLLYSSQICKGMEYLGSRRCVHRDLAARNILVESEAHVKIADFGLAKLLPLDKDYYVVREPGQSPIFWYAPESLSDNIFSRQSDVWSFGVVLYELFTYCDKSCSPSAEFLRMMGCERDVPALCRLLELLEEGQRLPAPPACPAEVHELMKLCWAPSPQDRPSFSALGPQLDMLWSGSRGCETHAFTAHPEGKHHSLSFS
Method in brief: (§1)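 GST-JAK + GFP-STAT1 peptide, HEPES pH 7.5/MgCl2/EGTA/Brij-35 buffer; cpd preincubation 1 h RT; ATP start, 1 h RT; stop with 10 mM EDTA + 2 nM Tb-anti-pSTAT1; TR-FRET 520/495. 4-parameter IC50 → pKi (Cheng-Prusoff).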

JAK1 = JAK1 (Homo sapiens (Human), UniProt P23458); assay: Biochemical JAK1 kinase assay (LanthaScreen)
Sequence of JAK1 (P23458 whole entry): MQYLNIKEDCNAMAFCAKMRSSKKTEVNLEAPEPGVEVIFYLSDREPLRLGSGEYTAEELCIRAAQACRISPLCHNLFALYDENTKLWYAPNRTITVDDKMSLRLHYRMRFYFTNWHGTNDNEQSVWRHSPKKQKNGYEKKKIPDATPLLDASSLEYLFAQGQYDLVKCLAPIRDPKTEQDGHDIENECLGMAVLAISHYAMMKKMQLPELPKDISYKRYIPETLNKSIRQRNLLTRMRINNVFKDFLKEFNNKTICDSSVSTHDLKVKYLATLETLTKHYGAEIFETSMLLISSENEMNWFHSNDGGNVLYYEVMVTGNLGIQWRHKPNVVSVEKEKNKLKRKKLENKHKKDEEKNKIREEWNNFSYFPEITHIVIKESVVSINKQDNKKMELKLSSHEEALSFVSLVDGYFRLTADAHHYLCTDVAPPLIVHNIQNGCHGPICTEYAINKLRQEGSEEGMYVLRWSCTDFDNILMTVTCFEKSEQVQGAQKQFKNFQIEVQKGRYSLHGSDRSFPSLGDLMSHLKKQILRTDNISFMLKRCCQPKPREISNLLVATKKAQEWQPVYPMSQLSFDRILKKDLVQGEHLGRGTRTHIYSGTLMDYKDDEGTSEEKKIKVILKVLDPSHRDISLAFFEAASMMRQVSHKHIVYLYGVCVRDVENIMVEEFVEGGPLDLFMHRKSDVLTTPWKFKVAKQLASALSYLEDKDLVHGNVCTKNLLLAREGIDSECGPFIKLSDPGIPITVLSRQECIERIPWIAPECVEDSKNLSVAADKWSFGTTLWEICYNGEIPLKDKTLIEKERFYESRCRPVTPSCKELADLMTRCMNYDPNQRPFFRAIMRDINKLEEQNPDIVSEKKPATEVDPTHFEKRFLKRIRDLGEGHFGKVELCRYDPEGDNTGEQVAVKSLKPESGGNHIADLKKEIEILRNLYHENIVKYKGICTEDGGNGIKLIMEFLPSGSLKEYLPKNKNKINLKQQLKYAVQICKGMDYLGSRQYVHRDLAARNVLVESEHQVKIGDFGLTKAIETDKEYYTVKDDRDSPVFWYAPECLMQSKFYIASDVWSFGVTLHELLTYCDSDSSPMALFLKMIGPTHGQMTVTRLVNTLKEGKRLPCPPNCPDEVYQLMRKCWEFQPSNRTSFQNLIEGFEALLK
Method in brief: as §1

JAK2 = JAK2 (Homo sapiens (Human), UniProt O60674); assay: Biochemical JAK2 kinase assay (LanthaScreen)
Sequence of JAK2 (O60674 whole entry): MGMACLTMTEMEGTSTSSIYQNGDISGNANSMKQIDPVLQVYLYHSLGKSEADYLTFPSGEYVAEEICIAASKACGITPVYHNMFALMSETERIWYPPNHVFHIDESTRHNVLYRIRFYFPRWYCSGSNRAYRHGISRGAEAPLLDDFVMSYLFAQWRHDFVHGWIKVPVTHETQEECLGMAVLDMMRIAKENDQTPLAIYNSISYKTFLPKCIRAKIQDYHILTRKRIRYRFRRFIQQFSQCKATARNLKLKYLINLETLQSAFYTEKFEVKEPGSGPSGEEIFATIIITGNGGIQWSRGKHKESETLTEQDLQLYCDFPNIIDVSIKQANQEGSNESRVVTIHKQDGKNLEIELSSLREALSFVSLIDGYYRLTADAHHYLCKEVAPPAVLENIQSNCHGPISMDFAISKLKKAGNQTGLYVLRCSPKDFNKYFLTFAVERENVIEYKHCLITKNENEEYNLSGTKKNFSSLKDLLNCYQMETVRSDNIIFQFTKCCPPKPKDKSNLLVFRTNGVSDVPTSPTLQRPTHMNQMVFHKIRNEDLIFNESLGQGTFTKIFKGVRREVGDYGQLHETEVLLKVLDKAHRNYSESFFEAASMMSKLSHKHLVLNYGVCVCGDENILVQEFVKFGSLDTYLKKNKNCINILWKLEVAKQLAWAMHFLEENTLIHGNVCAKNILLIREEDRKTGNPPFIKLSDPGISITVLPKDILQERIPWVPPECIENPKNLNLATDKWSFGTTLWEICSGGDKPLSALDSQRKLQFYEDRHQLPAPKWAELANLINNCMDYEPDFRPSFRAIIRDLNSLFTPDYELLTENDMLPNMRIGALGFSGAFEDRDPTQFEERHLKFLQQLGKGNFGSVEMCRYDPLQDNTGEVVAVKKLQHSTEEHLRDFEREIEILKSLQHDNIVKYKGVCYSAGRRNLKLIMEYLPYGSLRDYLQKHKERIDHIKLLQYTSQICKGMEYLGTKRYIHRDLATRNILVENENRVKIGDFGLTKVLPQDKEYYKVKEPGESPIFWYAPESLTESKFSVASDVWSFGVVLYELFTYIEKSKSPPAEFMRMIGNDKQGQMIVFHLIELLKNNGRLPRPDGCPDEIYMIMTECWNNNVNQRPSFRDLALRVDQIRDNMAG
Method in brief: as §1

Tyk2 = Tyk2 (Homo sapiens (Human), UniProt P29597); assay: Biochemical Tyk2 kinase assay (LanthaScreen)
Sequence of Tyk2 (P29597 whole entry): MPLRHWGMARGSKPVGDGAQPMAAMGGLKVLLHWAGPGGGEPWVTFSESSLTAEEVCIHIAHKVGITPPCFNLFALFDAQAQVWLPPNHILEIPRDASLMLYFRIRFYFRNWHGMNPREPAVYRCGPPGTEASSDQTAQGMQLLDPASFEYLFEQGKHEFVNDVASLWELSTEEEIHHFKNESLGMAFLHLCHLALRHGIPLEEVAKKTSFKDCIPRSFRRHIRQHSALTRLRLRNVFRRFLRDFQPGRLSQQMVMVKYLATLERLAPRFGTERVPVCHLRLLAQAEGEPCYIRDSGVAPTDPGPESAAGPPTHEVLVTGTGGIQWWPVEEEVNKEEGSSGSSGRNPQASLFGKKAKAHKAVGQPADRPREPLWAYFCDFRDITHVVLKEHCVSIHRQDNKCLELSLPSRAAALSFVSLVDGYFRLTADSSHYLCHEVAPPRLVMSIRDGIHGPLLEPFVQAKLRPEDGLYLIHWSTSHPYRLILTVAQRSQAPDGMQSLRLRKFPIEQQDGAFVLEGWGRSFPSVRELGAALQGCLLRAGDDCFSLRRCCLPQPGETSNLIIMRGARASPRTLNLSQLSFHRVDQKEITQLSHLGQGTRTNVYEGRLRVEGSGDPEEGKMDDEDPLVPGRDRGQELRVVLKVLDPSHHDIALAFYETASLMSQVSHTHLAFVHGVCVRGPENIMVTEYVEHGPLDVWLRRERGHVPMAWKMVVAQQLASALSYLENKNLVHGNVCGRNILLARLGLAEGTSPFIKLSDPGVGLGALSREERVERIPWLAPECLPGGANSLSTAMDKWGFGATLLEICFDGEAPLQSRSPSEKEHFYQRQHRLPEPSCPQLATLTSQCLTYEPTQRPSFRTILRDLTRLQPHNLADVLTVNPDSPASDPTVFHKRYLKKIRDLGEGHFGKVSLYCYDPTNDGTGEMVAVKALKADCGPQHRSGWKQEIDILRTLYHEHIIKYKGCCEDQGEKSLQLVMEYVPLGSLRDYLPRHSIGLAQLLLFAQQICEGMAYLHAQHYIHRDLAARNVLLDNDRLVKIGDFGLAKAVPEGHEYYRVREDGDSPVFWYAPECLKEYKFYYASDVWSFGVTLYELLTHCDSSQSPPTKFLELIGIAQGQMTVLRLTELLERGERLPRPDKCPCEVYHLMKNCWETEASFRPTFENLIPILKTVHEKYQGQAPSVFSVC
Method in brief: as §1

## C=CC(=O)N1CCN(CCn2c(=O)ccc3cnc(Nc4cnn(C)c4)nc32)[C@@H](CCC)C1 [Example 158]
[1]
  Tall-1 (pIC50): C (C represents a pIC50 value between 6 and 6.7 (IC50 between 1 μM and 200 nM))
JAK3
  JAK 3 (pKi): B (B represents pKi value between 9 and 10 (Ki between 1 nM and 0.1 nM))
  JAK3 (pKi)-JAK1 (pKi): A (A represents a value of 3 or above)
JAK1
  JAK 1 (pKi): E (E represents a pKi value of 7 or below (Ki of 100 nM or above))
JAK2
  JAK 2 (pKi): E (E represents a pKi value of 7 or below (Ki of 100 nM or above))
Tyk2
  Tyk 2 (pKi): E (E represents a pKi value of 7 or below (Ki of 100 nM or above))

## C=CC(=O)N1CCN(CCn2c(=O)ccc3cnc(Nc4ccc(N5CCN(C)CC5)cc4)nc32)[C@@H](C)C1 [Example 160]
[1]
  Tall-1 (pIC50): A (A represents a pIC50 value≥7.5 (IC50≤32 nM))
JAK3
  JAK 3 (pKi): B (B represents pKi value between 9 and 10 (Ki between 1 nM and 0.1 nM))
  JAK3 (pKi)-JAK1 (pKi): A (A represents a value of 3 or above)
JAK1
  JAK 1 (pKi): E (E represents a pKi value of 7 or below (Ki of 100 nM or above))
JAK2
  JAK 2 (pKi): E (E represents a pKi value of 7 or below (Ki of 100 nM or above))
Tyk2
  Tyk 2 (pKi): E (E represents a pKi value of 7 or below (Ki of 100 nM or above))

## C=CC(=O)N1CC(C)(CCn2c(=O)ccc3cnc(Nc4ccc(N5CCN(C(C)=O)CC5)cc4)nc32)C1 [Example 161]
[1]
  Tall-1 (pIC50): A (A represents a pIC50 value≥7.5 (IC50≤32 nM))
JAK3
  JAK 3 (pKi): B (B represents pKi value between 9 and 10 (Ki between 1 nM and 0.1 nM))
  JAK3 (pKi)-JAK1 (pKi): A (A represents a value of 3 or above)
JAK1
  JAK 1 (pKi): E (E represents a pKi value of 7 or below (Ki of 100 nM or above))
JAK2
  JAK 2 (pKi): E (E represents a pKi value of 7 or below (Ki of 100 nM or above))
Tyk2
  Tyk 2 (pKi): E (E represents a pKi value of 7 or below (Ki of 100 nM or above))

## C=CC(=O)N1CC(CCn2c(=O)ccc3cnc(Nc4ccc(N5CCN(C)C[C@@H]5C)cc4)nc32)C1 [Example 163]
[1]
  Tall-1 (pIC50): A (A represents a pIC50 value≥7.5 (IC50≤32 nM))
JAK3
  JAK 3 (pKi): B (B represents pKi value between 9 and 10 (Ki between 1 nM and 0.1 nM))
  JAK3 (pKi)-JAK1 (pKi): A (A represents a value of 3 or above)
JAK1
  JAK 1 (pKi): E (E represents a pKi value of 7 or below (Ki of 100 nM or above))
JAK2
  JAK 2 (pKi): E (E represents a pKi value of 7 or below (Ki of 100 nM or above))
Tyk2
  Tyk 2 (pKi): E (E represents a pKi value of 7 or below (Ki of 100 nM or above))

## C=CC(=O)N1CCN(C(C)(C)Cn2c(=O)ccc3cnc(Nc4ccc(N5CCN(C)CC5)cc4)nc32)CC1 [Example 164]
[1]
  Tall-1 (pIC50): C (C represents a pIC50 value between 6 and 6.7 (IC50 between 1 μM and 200 nM))
JAK3
  JAK 3 (pKi): B (B represents pKi value between 9 and 10 (Ki between 1 nM and 0.1 nM))
  JAK3 (pKi)-JAK1 (pKi): A (A represents a value of 3 or above)
JAK1
  JAK 1 (pKi): E (E represents a pKi value of 7 or below (Ki of 100 nM or above))
JAK2
  JAK 2 (pKi): E (E represents a pKi value of 7 or below (Ki of 100 nM or above))
Tyk2
  Tyk 2 (pKi): E (E represents a pKi value of 7 or below (Ki of 100 nM or above))

## C=CC(=O)N1CC(CCn2c(=O)ccc3cnc(Nc4ccc(N5CCN(C)[C@@H](C)C5)cc4)nc32)C1 [Example 165]
[1]
  Tall-1 (pIC50): A (A represents a pIC50 value≥7.5 (IC50≤32 nM))
JAK3
  JAK 3 (pKi): A (A represents a pKi value≥10 (Ki≤0.1 nM))
  JAK3 (pKi)-JAK1 (pKi): A (A represents a value of 3 or above)
JAK1
  JAK 1 (pKi): E (E represents a pKi value of 7 or below (Ki of 100 nM or above))
JAK2
  JAK 2 (pKi): E (E represents a pKi value of 7 or below (Ki of 100 nM or above))
Tyk2
  Tyk 2 (pKi): E (E represents a pKi value of 7 or below (Ki of 100 nM or above))

## C=CC(=O)N1CC(CCn2c(=O)ccc3cnc(Nc4ccc(N5CCN(C)CC5)c(C)c4)nc32)C1 [Example 166]
[1]
  Tall-1 (pIC50): A (A represents a pIC50 value≥7.5 (IC50≤32 nM))
JAK3
  JAK 3 (pKi): A (A represents a pKi value≥10 (Ki≤0.1 nM))
  JAK3 (pKi)-JAK1 (pKi): A (A represents a value of 3 or above)
JAK1
  JAK 1 (pKi): E (E represents a pKi value of 7 or below (Ki of 100 nM or above))
JAK2
  JAK 2 (pKi): E (E represents a pKi value of 7 or below (Ki of 100 nM or above))
Tyk2
  Tyk 2 (pKi): E (E represents a pKi value of 7 or below (Ki of 100 nM or above))

## C=CC(=O)N1CC(CCn2c(=O)ccc3cnc(Nc4ccc(N5CCN(C(C)=O)C[C@@H]5C)cc4)nc32)C1 [Example 168]
[1]
  Tall-1 (pIC50): A (A represents a pIC50 value≥7.5 (IC50≤32 nM))
JAK3
  JAK 3 (pKi): A (A represents a pKi value≥10 (Ki≤0.1 nM))
  JAK3 (pKi)-JAK1 (pKi): A (A represents a value of 3 or above)
JAK1
  JAK 1 (pKi): E (E represents a pKi value of 7 or below (Ki of 100 nM or above))
JAK2
  JAK 2 (pKi): E (E represents a pKi value of 7 or below (Ki of 100 nM or above))
Tyk2
  Tyk 2 (pKi): E (E represents a pKi value of 7 or below (Ki of 100 nM or above))

## C=CC(=O)N1CC(CCn2c(=O)ccc3cnc(Nc4ccc(N5CCN(C(C)=O)[C@H](C)C5)cc4)nc32)C1 [Example 169]
[1]
  Tall-1 (pIC50): A (A represents a pIC50 value≥7.5 (IC50≤32 nM))
JAK3
  JAK 3 (pKi): A (A represents a pKi value≥10 (Ki≤0.1 nM))
  JAK3 (pKi)-JAK1 (pKi): A (A represents a value of 3 or above)
JAK1
  JAK 1 (pKi): E (E represents a pKi value of 7 or below (Ki of 100 nM or above))
JAK2
  JAK 2 (pKi): E (E represents a pKi value of 7 or below (Ki of 100 nM or above))
Tyk2
  Tyk 2 (pKi): E (E represents a pKi value of 7 or below (Ki of 100 nM or above))

## C=CC(=O)N1CCN(CCn2c(=O)ccc3cnc(Nc4ccc(N5CCN(S(C)(=O)=O)CC5)cc4)nc32)[C@@H](C)C1 [Example 176]
[1]
  Tall-1 (pIC50): B (B represents a pC50 value between 6.7 (included) and 7.5 (IC50 between 200 nM and 32 nM))
JAK3
  JAK 3 (pKi): A (A represents a pKi value≥10 (Ki≤0.1 nM))
  JAK3 (pKi)-JAK1 (pKi): A (A represents a value of 3 or above)
JAK1
  JAK 1 (pKi): E (E represents a pKi value of 7 or below (Ki of 100 nM or above))
JAK2
  JAK 2 (pKi): E (E represents a pKi value of 7 or below (Ki of 100 nM or above))
Tyk2
  Tyk 2 (pKi): E (E represents a pKi value of 7 or below (Ki of 100 nM or above))

## C=CC(=O)N1CC(CCn2c(=O)ccc3cnc(Nc4ccc(N5CCN(C(F)(F)F)CC5)cc4)nc32)C1 [Example 177]
[1]
  Tall-1 (pIC50): B (B represents a pC50 value between 6.7 (included) and 7.5 (IC50 between 200 nM and 32 nM))
JAK3
  JAK 3 (pKi): B (B represents pKi value between 9 and 10 (Ki between 1 nM and 0.1 nM))
  JAK3 (pKi)-JAK1 (pKi): A (A represents a value of 3 or above)
JAK1
  JAK 1 (pKi): E (E represents a pKi value of 7 or below (Ki of 100 nM or above))
JAK2
  JAK 2 (pKi): E (E represents a pKi value of 7 or below (Ki of 100 nM or above))
Tyk2
  Tyk 2 (pKi): E (E represents a pKi value of 7 or below (Ki of 100 nM or above))

## C=CC(=O)N1CC(CCn2c(=O)ccc3cnc(Nc4ccc(N5CCN(C(C)=O)CC5)c(F)c4)nc32)C1 [Example 181]
[1]
  Tall-1 (pIC50): B (B represents a pC50 value between 6.7 (included) and 7.5 (IC50 between 200 nM and 32 nM))
JAK3
  JAK 3 (pKi): B (B represents pKi value between 9 and 10 (Ki between 1 nM and 0.1 nM))
  JAK3 (pKi)-JAK1 (pKi): A (A represents a value of 3 or above)
JAK1
  JAK 1 (pKi): E (E represents a pKi value of 7 or below (Ki of 100 nM or above))
JAK2
  JAK 2 (pKi): E (E represents a pKi value of 7 or below (Ki of 100 nM or above))
Tyk2
  Tyk 2 (pKi): E (E represents a pKi value of 7 or below (Ki of 100 nM or above))

## C=CC(=O)N1CC(CCn2c(=O)ccc3cnc(Nc4ccc(N5CCN(C(C)=O)CC5)c(Cl)c4)nc32)C1 [Example 182]
[1]
  Tall-1 (pIC50): B (B represents a pC50 value between 6.7 (included) and 7.5 (IC50 between 200 nM and 32 nM))
JAK3
  JAK 3 (pKi): A (A represents a pKi value≥10 (Ki≤0.1 nM))
  JAK3 (pKi)-JAK1 (pKi): A (A represents a value of 3 or above)
JAK1
  JAK 1 (pKi): E (E represents a pKi value of 7 or below (Ki of 100 nM or above))
JAK2
  JAK 2 (pKi): E (E represents a pKi value of 7 or below (Ki of 100 nM or above))
Tyk2
  Tyk 2 (pKi): E (E represents a pKi value of 7 or below (Ki of 100 nM or above))

## C=CC(=O)N1CC(CCn2c(=O)ccc3cnc(Nc4ccc(N5CCN(C(C)=O)CC5)nc4)nc32)C1 [Example 183]
[1]
  Tall-1 (pIC50): C (C represents a pIC50 value between 6 and 6.7 (IC50 between 1 μM and 200 nM))
JAK3
  JAK 3 (pKi): A (A represents a pKi value≥10 (Ki≤0.1 nM))
  JAK3 (pKi)-JAK1 (pKi): A (A represents a value of 3 or above)
JAK1
  JAK 1 (pKi): E (E represents a pKi value of 7 or below (Ki of 100 nM or above))
JAK2
  JAK 2 (pKi): E (E represents a pKi value of 7 or below (Ki of 100 nM or above))
Tyk2
  Tyk 2 (pKi): E (E represents a pKi value of 7 or below (Ki of 100 nM or above))
